What was measured:
[1] = tested on: Streptococcus faecalis resistant to erythromycin; assay: Therapeutical treatment of mice infected with erythromycin-resistant Streptococcus faecalis (Example 9); format: in vivo, male ICR-JCL mice; settings: only erythromycin 50 mg/kg oral, 7th day
Description: Experiments of therapeutical treatment of animals infected with an erythromycin-resistant bacterial strain were carried out using the present substance, i.e., a nitrogen-containing polysaccharide prepared by the procedures described in Example 1.
After keeping the mice under usual conditions for 6 days, the rate of survival of each mouse was observed on 7th day.

[2] = tested on: Klebsiella pneumoniae; assay: Minimum growth inhibiting concentration, agar plate method; format: cell-based; settings: for Minimum growth inhibiting concentration: strain resistant to the respective drug
Description: (§1) The drug-resistant strains of bacterial species were obtained in the manner described below according to the concentration gradient plate culture (see "Chemotherapeutics and Resistant Bacteria", 1970, By Chikara Watanabe, Asakura Shoten).
(§2) The agar plates with drug concentration gradient ranging from 10 to 100 μg/ml were prepared, and each strain of the bacterial species to be tested was streaked or smeared. These plates were kept at 37° C. for several days and the colony formed in the high concentration area was isolated and again similarly inoculated to the plates. Such operation was repeated several times to obtain the bacterial strains resistant to the respective drugs.
(§3) The drug sensitivity of the drug-resistant strains and that of the original strains (sensitive strains) were compared by way of the minimum growth inhibiting concentration (hereinafter abbreviated as MIC) according to the Standard Method of the Japanese Chemotherapeutical Association (see "Chemotherapy" Vol. 22, No. 6, 1126 (1974), by MIC Determination Method Reform Committee). More specifically, double diluted systems of each drug were prepared and they were mixed with the heart-infusion agar medium (Nippon Eiyo Kagaku Co., Ltd.) to form the agar plates. Then a loopful of each strain, which had been cultured at 37° C. in Trypto-soy bouillon (Nippon Eiyo Kagaku Co., Ltd.) for 18 hr. was smeared on each the plate, and after culturing for 18 hr. at 37° C., the growth of the strain on each plate was examined.
(§4) The amount of the present substance added is more than 10 μg/ml, preferably more than 100 μg/ml. The pH of the medium was maintained at 7.2±0.1 so that MIC would not be affected by pH of the medium.
(§5) Specimens of the drug-resistant bacterial strain were obtained according to the aforementioned concentration-gradient plate culture by using Staphylococcus aureus, Streptococcus faecalis, Escherichia coli, Salmonella enteritidis, Klebsiella pneumoniae and Pseudomonas aeruginosa.

[3] = tested on: Staphylococcus aureus; assay: as above; format: cell-based; settings: for Minimum growth inhibiting concentration: strain resistant to the respective drug
Description: as §1, §2, §3, §4, §5

[4] = tested on: Escherichia coli; assay: as above; format: cell-based; settings: for Minimum growth inhibiting concentration: strain resistant to the respective drug
Description: as §1, §2, §3
as §4, with “MIC has apparently been reduced to half the level or less before addition of the present substance as will be seen in Table 3 of EXAMPLE 1. The amount” for “The amount”
as §5, with “aeruginosa. The MICs of the original bacterial strains and those of the bacterial strains which have developed resistance to the respective antibiotics are summarized in Table 2.” for “aeruginosa.”

[5] = tested on: Salmonella enteritidis; assay: as above; format: cell-based; settings: for Minimum growth inhibiting concentration: strain resistant to the respective drug
Description: as §1, §2, §3
as §4, with “MIC has apparently been reduced to half the level or less before addition of the present substance as will be seen in Table 3 of EXAMPLE 1. The amount” for “The amount”
as §5, with “aeruginosa. The MICs of the original bacterial strains and those of the bacterial strains which have developed resistance to the respective antibiotics are summarized in Table 2.” for “aeruginosa.”

[6] = tested on: Streptococcus faecalis; assay: as above; format: cell-based; settings: for Minimum growth inhibiting concentration: strain resistant to the respective drug
Description: as §1, §2, §3
as §4, with “MIC has apparently been reduced to half the level or less before addition of the present substance as will be seen in Table 3 of EXAMPLE 1. The amount” for “The amount”
as §5, with “aeruginosa. The MICs of the original bacterial strains and those of the bacterial strains which have developed resistance to the respective antibiotics are summarized in Table 2.” for “aeruginosa.”

[7] = tested on: streptomycin resistant strain of Klebsiella pneumoniae; assay: Therapeutical test in mice infected with streptomycin-resistant Klebsiella pneumoniae (Example 7); format: in vivo, male ICR-JCL mouse; settings: streptomycin singly 100 mg/kg i.p., 6 days after administration
Description: The streptomycin resistant strain of Klebsiella pneumoniae was obtained by the procedure of Exampe 1 and 0.25 ml of a Trypto-soy bouillon (see Example 2) containing 5% of mucin and the bacterial strain was intraperitoneally inoculated to each mouse of 2 groups of male ICR-JCL mouse, the group consisting of 10 mice at the rate of 1×10^8 cells per mouse. Three hours after this inoculation, 100 mg/kg of streptomycin was intraperitoneally administered. Another group was further given 120 mg/kg of the present substance, obtained by the description in Example 6, via intraperitoneal administration. The survival rate 6 days after administration was 50% in the group where streptomycin was used singly, but it was as high as 80% in the group where the present substance was used with streptomycin.

[8] = tested on: chloramphenicol-resistant strain of Salmonella enteritidis; assay: Therapeutical test in mice infected with chloramphenicol-resistant Salmonella enteritidis (Example 6); format: in vivo, male ICR-JCL mouse; settings: chloramphenicol alone 50 mg/kg i.p., 5 days after administration
Description: The following experiment was then carried out on the present substance having the above-mentioned properties.
The chloramphenicol-resistant strain of Salmonella enteritidis were obtained as in Example 1.
A quarter milli-liter of suspension of the aforementioned chloramphenicol-resistant bacterial strain in Tryptosoy-bouillon (see Example 2) including 5% of mucin was intraperitoneally inoculated to each mouse of 5 groups of male ICR-JCL mouse, the group consisting of 10 mice. The inoculum was 1×10^8 cells/mouse. Twenty five hours after the inoculation, 50 mg/kg of chloramphenicol was administered intraperitoneally. 500 mg/kg of the present substance was further given orally to another group. The rate of survival 5 days after the administration was 40% in the group where chloramphenicol alone was administered, while it was 80% in the group where the antibiotic was given in combination with the present substance.

[9] = tested on: kanamycin-resistant strain of Shigella sonnei; assay: Therapeutical treatment of mice infected with kanamycin-resistant Shigella sonnei (Example 10); format: in vivo, male ICR-JCL mice; settings: only kanamycin 20 mg/kg i.p., 7th day
Description: Similar experiments of therapeutical treatment as in Example 9 was performed by using the present substance obtained by the procedures described in Example 1.
A kanamycin-resistant strain of Shigella sonnei obtained by the procedures described in Example 1 was intraperitoneally inoculated to the two groups (each group comprising 10 animals) of male ICR-JCL mice at a rate of 1×10^8 cells/mouse, and after 2 hours of the inoculation, 20 mg/kg of kanamycin was intraperitoneally administered to the mice of one group, and 100 mg/kg of the present substance and 20 mg/kg of kanamycin were almost simultaneously administered to the mice of another group. After keeping the mice under usual conditions for 6 days. Their rate of survival was observed on 7th day.

[10] = tested on: Shigella sonnei; assay: Minimum growth inhibiting concentration, agar plate method; format: cell-based; settings: for Minimum growth inhibiting concentration: strain resistant to the respective drug
[11] = tested on: Enterobacter aerogenes; assay: as above; format: cell-based; settings: for Minimum growth inhibiting concentration: strain resistant to the respective drug
[12] = tested on: colistin-resistant strain of Pseudomonas aeruginosa; assay: Therapeutical test in mice infected with colistin-resistant Pseudomonas aeruginosa (Example 8); format: in vivo, male ICR-JCL mice; settings: single colistin 190 mg/kg i.p., 6 days after administration
Description: A quarter milli-liter of a suspension of the colistin-resistant strain of Pseudomonas aeruginosa cultured by the same procedure in Example 1 in Trypto-soy bouillon (see Example 2) including 5% of mucin was intraperitoneally inoculated to each mouse of 2 groups of male ICR-JCL mice (body weight: 22±1 g, 10 mice a group) at the rate of 1×10^8 cells/mouse. […] The present substance obtained by the same procedure as in Example 6 was also orally administered at a dose of 1,500 mg/kg.

[13] = tested on: Pseudomonas aeruginosa; assay: Minimum growth inhibiting concentration, agar plate method; format: cell-based; settings: for Minimum growth inhibiting concentration: strain resistant to the respective drug
Description: as §1, §2, §3, §4, §5

[14] = strain resistant to the respective antibiotic (Table 2)
[15] = present substance added at 1000 μg/ml
[16] = present substance not added (Table 3)
[17] = present substance added at 100 μg/ml

| Molecule | Minimum growth inhibiting concentration (MIC) [2, 14] [µg/mL] | Minimum growth inhibiting concentration (MIC) ([3]; original strain) [µg/mL] | Minimum growth inhibiting concentration (MIC) ([4]; original strain) [µg/mL] | Minimum growth inhibiting concentration (MIC) ([5]; original strain) [µg/mL] | Minimum growth inhibiting concentration (MIC) ([2]; original strain) [µg/mL] | Minimum growth inhibiting concentration (MIC) [3, 14] [µg/mL] | Minimum growth inhibiting concentration [3, 16] [µg/mL] | Minimum growth inhibiting concentration (MIC) [4, 14] [µg/mL] | Minimum growth inhibiting concentration (MIC) [5, 14] [µg/mL] | Minimum growth inhibiting concentration [2, 16] [µg/mL] | Minimum growth inhibiting concentration [4, 16] [µg/mL] | other results |
| --- | --- | --- | --- | --- | --- | --- | --- | --- | --- | --- | --- | --- |
| CC[C@H]1OC(=O)[C@H](C)[C@@H](O[C@H]2C[C@@](C)(OC)[C@@H](O)[C@H](C)O2)[C@H](C)[C@@H](O[C@@H]2O[C@H](C)C[C@H](N(C)C)[C@H]2O)[C@](C)(O)C[C@@H](C)C(=O)[C@H](C)[C@@H](O)[C@]1(C)O [EM, Erythromycin] | > 100 | 0.4 | > 100 | > 100 | – | – | – | – | – | – | – | rate of survival [1]: 50%; Minimum growth inhibiting concentration [3, 15]: 3.2 µg/mL |
| CC1(C)S[C@@H]2[C@H](NC(=O)Cc3ccccc3)C(=O)N2[C@H]1C(=O)O [PG, Penicillin G] | > 100 | 0.025 | 12.5 | 6.3 | 6.3 | 12.5 | 12.5 | > 100 | > 100 | – | – | Minimum growth inhibiting concentration [3, 15]: 1.6 µg/mL |
| CN(C)[C@@H]1C(O)=C(C(N)=O)C(=O)[C@@]2(O)C(O)=C3C(=O)c4c(O)cccc4[C@@](C)(O)[C@H]3C[C@@H]12 [TC, Tetracycline] | 25 | 0.8 | 3.1 | 1.6 | 1.6 | 25 | 25 | 25 | 12.5 | 25 | 25 | Minimum growth inhibiting concentration [2, 17]: 12.5 µg/mL; Minimum growth inhibiting concentration [3, 17]: 3.2 µg/mL; Minimum growth inhibiting concentration [4, 17]: 6.3 µg/mL; Minimum growth inhibiting concentration (MIC) ([6]; original strain): 0.4 µg/mL; Minimum growth inhibiting concentration (MIC) [6, 14]: 25 µg/mL; Minimum growth inhibiting concentration [6, 17]: 6.3 µg/mL; Minimum growth inhibiting concentration [6, 16]: 25 µg/mL; Minimum growth inhibiting concentration [5, 17]: 6.3 µg/mL; Minimum growth inhibiting concentration [5, 16]: 12.5 µg/mL |
| [H]/N=C(/N)N[C@H]1[C@H](O)[C@@H](O)[C@H](O[C@@H]2O[C@@H](C)[C@](O)(C=O)[C@H]2O[C@@H]2O[C@@H](CO)[C@H](O)[C@@H](O)[C@@H]2NC)[C@@H](N/C(N)=N\[H])[C@@H]1O [SM, Streptomycin] | 100 | 1.6 | 3.1 | 25 | 1.6 | > 100 | – | 100 | > 100 | 100 | 100 | Minimum growth inhibiting concentration [2, 15]: 25 µg/mL; Minimum growth inhibiting concentration [4, 15]: 25 µg/mL; survival rate [7]: 50% |
| O=C(N[C@H](CO)[C@H](O)c1ccc([N+](=O)[O-])cc1)C(Cl)Cl [CP, Chlorampheniocol] | 25 | 3.1 | 1.6 | 0.8 | 0.8 | 25 | 25 | 50 | 12.5 | 25 | 50 | rate of survival [8]: 40%; Minimum growth inhibiting concentration [2, 17]: 6.3 µg/mL; Minimum growth inhibiting concentration [3, 17]: 6.3 µg/mL; Minimum growth inhibiting concentration [4, 17]: 12.5 µg/mL; Minimum growth inhibiting concentration [5, 17]: 3.2 µg/mL; Minimum growth inhibiting concentration [5, 16]: 12.5 µg/mL |
| NC[C@H]1O[C@H](O[C@H]2[C@H](O)[C@@H](O[C@H]3O[C@H](CO)[C@@H](O)[C@H](N)[C@H]3O)[C@H](N)C[C@@H]2N)[C@H](O)[C@@H](O)[C@@H]1O [KM, Kanamycin] | – | – | 6.3 | – | – | – | – | 200 | – | – | 200 | rate of survival [9]: 30%; Minimum growth inhibiting concentration (MIC) ([10]; original strain): 3.1 µg/mL; Minimum growth inhibiting concentration (MIC) [10, 14]: 50 µg/mL; Minimum growth inhibiting concentration [10, 15]: 12.5 µg/mL; Minimum growth inhibiting concentration [10, 16]: 50 µg/mL; Minimum growth inhibiting concentration [4, 15]: 50 µg/mL; Minimum growth inhibiting concentration (MIC) ([11]; original strain): 3.1 µg/mL; Minimum growth inhibiting concentration (MIC) [11, 14]: 100 µg/mL; Minimum growth inhibiting concentration [11, 15]: 12.5 µg/mL; Minimum growth inhibiting concentration [11, 16]: 100 µg/mL |
| Colistin [CL] | – | – | – | – | – | – | – | – | – | – | – | rate of survival [12]: 40%; Minimum growth inhibiting concentration (MIC) [13, 14]: 200 µg/mL; Minimum growth inhibiting concentration [13, 15]: 100 µg/mL; Minimum growth inhibiting concentration [13, 16]: 200 µg/mL |

Source: patent US4268505A, “Pharmaceutical composition comprising a nitrogen-containing polysaccharide and an antibiotic agent, and a method of treating an infectious disease therewith” (priority 1979, dated 1981)
